Results from patent US12121518B2, “PARP-1 and methods of use thereof” (The Board of Supervisors of Louisiana State University and …, priority 2017, dated 2024).
“Also recorded” adds a separate entry of the source.

Assays:
[1] = system: AOM/DSS-induced colon tumorigenesis; assay: AOM/DSS chronic inflammation-driven colon cancer mouse model; type: in vivo; conditions: AOM/DSS-treated WT mice; for colon tumor burden: vs vehicle
Method: The drug was administered twice weekly for the duration of the protocol. […] As stated above, the AOM/DSS colon cancer model is driven primarily by chronic inflammation; thus, we next assessed mice sera for inflammatory factors TNF-α, IL-6, and MCP-1, which are highly relevant to human colon carcinogenesis.
Tumor models, assessment of tumor burden and adoptive transfer—For the azoxymethane/Dextran Sulfate Sodium (AOM/DSS)-induced tumorigenesis model, six to eight weeks old WT, PARP-1^+/− or PARP-1^−/− mice received a single dose (10 mg/kg) of AOM, i.p., followed by 4 cycles of 1.25% DSS provided in drinking water. Each cycle consisted of a week of DSS water separated by 2 weeks of regular water. […] At week 22 after the start of the experimental protocol, mice were sacrificed by CO2 asphyxiation. Colons, spleens, and blood were collected for analysis. Colons were opened longitudinally and washed with PBS to assess the tumor burdens using a dissecting microscope. For the APC^Min-mediated model, APC^Min/+, APC^Min/+PARP-1^+/−, or APC^Min/+PARP-1^−/− male mice were sacrificed at 16 weeks of age. […] Sacrificed mice were processed as described above except that the tumor burden was assessed along the whole intestinal track. Tumors were counted and divided in groups lower than 2 mm, 2-4 mm, and tumors bigger than 4 mm in diameter.
Tissue processing, immunohistochemistry, immunofluorescence and cytokines measurement—Some tissues were fixed in buffered formalin (10%), paraffin-embedded, then sectioned. Serial sections were subjected to H&E staining, immunohistochemistry (IHC) or immunofluorescence, as described (33), with antibodies to PCNA (Novusbio, Littleton, CO), COX-2 (Santa Cruz Biotechnology, Santa Cruz, CA), ICAM-1 (Santa Cruz Biotechnology), CD8 (Santa Cruz Biotechnology), or Gr1 (eBioscience, San Diego, USA) as previously described (34). […] Cytokine levels were assessed for TNF-α (ELM-TNFα-1), IL-6 (ELM-IL-6-1), and MCP-1 (ELM-MCP1) by ELISA (all from RayBiotech, Norcross, GA) according to the manufacturer's instructions and recommendations.

[2] = system: MC-38 cell-based tumors; assay: MC-38 cell-based syngeneic colon cancer mouse model; type: in vivo
From the text: Mice that received vehicle increased in size in a time-dependent manner and were sacrificed at day 16.
For the syngeneic tumor models, six to eight weeks old WT, PARP-1^+/−, or PARP-1^−/− mice were subcutaneously inoculated with 2.5×10^5 MC-38 cells. In some experiments, MC-38 cells transfected with p193-PGK-SB100X and pKT2PGK-BsdGFP_CLP-Luc plasmids (flanked by Sleeping Beauty transposons) and sorted by FACS. Selected cells were then engrafted onto mice as described above. When tumors became palpable (at day 4-6), WT mice were randomized and assigned to the different experimental groups. […] Tumor volumes were measured with a digital caliper or assessed using GFP/Luc-Biophotonic Imaging (Xenogen IVIS200, PerkinElmer, Boston, MA). Tumors were measured by the greatest longitudinal diameter (length) and the greatest transverse diameter (width) using a digital caliper. Tumor volumes were calculated using the following formula: tumor volume=(length×width^2)/2. For luciferase imaging, tumor-bearing mice received 150 mg/kg of D-luciferin potassium salt solution (PerkinElmer, Boston, MA) i.p. five minutes prior to anesthetic induction and imaging. Bioluminescence within a predetermined region of interest (ROI) on each mouse was quantified in photons/sec/cm^2/sr. At the end of the protocol (day 20-24), mice were sacrificed and tumors were harvested for further processing and analysis. For the adoptive transfer experiments, 3×10^6 BM-MDSCs derived from WT mice or vehicle were injected, intratumorally, into WT or PARP-1^+/− mice. The MDSCs were delivered at five injection sites at days 8 and 16 following engraftment of MC-38 cells.
Tissue processing, immunohistochemistry, immunofluorescence and cytokines measurement—Some tissues were fixed in buffered formalin (10%), paraffin-embedded, then sectioned. Serial sections were subjected to H&E staining, immunohistochemistry (IHC) or immunofluorescence, as described (33), with antibodies to PCNA (Novusbio, Littleton, CO), COX-2 (Santa Cruz Biotechnology, Santa Cruz, CA), ICAM-1 (Santa Cruz Biotechnology), CD8 (Santa Cruz Biotechnology), or Gr1 (eBioscience, San Diego, USA) as previously described (34). Some of the sections were subjected to immunofluorescence with antibodies to CD8 or Gr1. Blood, collected by cardiac puncture, was run through a Microtainer Serum Separator tube (BD, Franklin Lake, NJ). The collected sera were immediately stored at −80° C. for future use and analysis. Cytokine levels were assessed for TNF-α (ELM-TNFα-1), IL-6 (ELM-IL-6-1), and MCP-1 (ELM-MCP1) by ELISA (all from RayBiotech, Norcross, GA) according to the manufacturer's instructions and recommendations.

[3] = system: KOPT-K1 cells; assay: KOPT-K1 cell viability (Trypan exclusion assay); type: cell-based; conditions: ultra-low doses, 2.5 days
Method: (§1) Cell viability was assessed 2.5 days after treatment by Trypan exclusion assay. Statistics are not included.
as §1
The ultimate goal of this therapy is maximal inhibition of PARP to achieve “synthetic lethality” taking advantage of the inability of BRCA-deficient cancer cells to repair DNA. […] This was tested in three different leukemia cell lines.

[4] = system: CD3+ T cells; assay: Proliferation of CD3/CD28-stimulated T cells in the absence of MDSCs; conditions: 72 h, no MDSCs
Method: After 96 h, cells were collected and stained with antibodies to CD11b or Gr1 and assessed by FACS (A) or co-cultured with CD3/CD28-stimulated and CFSC-labeled WT CD3^+ T cells for 72 h followed by an assessment of proliferation by FACS (B).

O=C(c1cc(Cc2n[nH]c(=O)c3ccccc23)ccc1F)N1CCN(C(=O)C2CC2)CC1 [olaparib]
colon tumor burden ([1]; 5 mg/kg i.p. twice weekly): significantly reduced the tumor burden | colon tumor burden ([1]; 25 mg/kg i.p. twice weekly): significantly reduced the tumor burden | colitis (colonic mucosa, H&E) ([1]; 5 or 25 mg/kg): notable protection | tumor size ([2]; 0.2 mg/kg, WT mice, from palpable tumors): barely increased above the size the tumors at the day 5; also recorded: more effective at reducing the tumor burden | tumor size ([2]; 1 mg/kg, WT mice, from palpable tumors (day 6)): very effective at blocking tumor growth | tumor size ([2]; 5 mg/kg, WT mice, from palpable tumors): relatively smaller than those of WT; also recorded: significant reduction in the size of MC-38 cell-based tumors | tumor progression (tumor volume) ([2]; WT mice, olaparib 0.2 mg/kg on alternate days, anti-PD-1 100 μg/mouse every 4 days, alone or combined): significantly reduced the progression of MC-38 tumors | intratumoral ICAM-1 immunoreactivity as a surrogate for inflammation ([2]; both doses (0.2 and 5 mg/kg)): reduction in inflammation | systemic inflammation (TNF-α, IL-6 and MCP-1 in sera) ([2]; both doses (0.2 and 5 mg/kg)): moderately reduced | steroid resistance (viability with dexamethasone) [3]: reverse steroid resistance | proliferation of T cells ([4]; high concentration 5 μM): significant effects on T-cell proliferation | proliferation of T cells ([4]; low concentration 4 nM): no effect on proliferation of T cells | proliferation of T cells ([4]; moderate concentration 0.1 μM): significant effects on T-cell proliferation
